Read-outs that look alike come from different tables or passages of the source.
Legend:
[1] = system: WNV-GFP (lineage 2; molecular clone WN956); experiment: WNV-GFP infection efficiency in Huh7 cells; format: cell-based, West Nile virus
[2] = system: IL6, IL8, IL1β and TNF-α secretion; experiment: Plitidepsin pre-treatment of THP-1 cells before Resiquimod stimulus, cytokine secretion; format: cell-based, human; conditions: 1, 10 or 50 nM added 8 hours before Resiquimod 2.5 or 5 μg/mL; read at 24 hours
Procedure: (§1) In a further in vitro experiment, the effect of plitidepsin (APL) pre-treatment on THP-1 cells was studied. Using a THP-1 NFκB luc line, 1, 10 or 50 nM of APL or DMSO (0.2%) was added 8 hours before stimulus with Resiquimod (RQ) at 2.5 or 5 μg/mL. RQ is a TLR7/8 agonist and mimics ssRNA. At 24 hours the level of cytokines or cell viability was measured.

[3] = system: WNV-NY99 (lineage 1); experiment: WNV/NY99 extracellular infectivity titers, Huh-7 cells; format: cell-based, West Nile virus; conditions: 45 nM, MOI 0.01, 48 hours
[4] = system: IL-6, IL-10 and TNFα secretion; experiment: Ex vivo LPS-B5-triggered cytokine secretion in bronchoalveolar lavage cells of treated mice; design: species or system mouse
Procedure: We checked whether plitidepsin inhibits the LPS-trigged cytokine secretion in alveolar macrophages. To that end mice were injected i.v. with plitidepsin (1 mg/kg) or vehicle and 12 hours after administration bronchoalveolar lavage fluid (BAL) was collected. Cells were plated and treated ex-vivo or not with 15 μg/mL of LPS-B5 for 3 or 6 hours and secreted cytokines were measured.
Mice were randomized into groups of five animals to receive the treatments. Mice were injected intra venous (i.v.) with plitidepsin (1 mg/kg) and 12 hours after administration were euthanised. Control group received plitidepsin vehicle diluted with saline (Cremophor/Ethanol/Water). Bronchoalveolar lavage fluid (BAL) of each group was collected and centrifugated to obtain bronchoalveolar lavage cells. Cells underwent red blood cell lysis (Roche) and were plated and treated ex-vivo or not with 15 μg/mL of LPS-B5 for 3 or 6 hours. Secreted cytokines were measured using highly specific and sensitive ELISA kits. Mouse IL-6, mouse IL-10 and mouse TNF DuoSet ELISA kits were obtained from R&D Systems and performed as described by the manufacturer.

[5] = system: WNV-NY99 (lineage 1); experiment: WNV/NY99 extracellular infectivity titers, Vero-E6 cells; format: cell-based, West Nile virus; conditions: VeroE6 cells, 45 nM, MOI 0.01, 48 hours
[6] = system: VeroE6 cells; experiment: Cell biomass (DAPI) in VeroE6 cells; format: cell-based, African green monkey; conditions: 48 hours
Procedure: (§2) Relative infection efficiency was assessed by automated fluorescence microscopy in the green channel and overall cell biomass/well was estimated by nuclear staining with DAPI in the blue channel, as a preliminary assessment of the compound effective doses as well as overall compound cytotoxicity.
(§3) Infection experiments: Cells were seeded onto 96-well plates (2×10^4 cells/well). The day after, serial 5-fold dilutions of plitidepsin were prepared in 2% FCS-containing complete media to achieve the indicated final concentrations. WNV-GFP stock was diluted in complete media containing 2% FCS to achieve the required multiplicity of infection (MOI 0.01). Compound and virus dilutions were mixed 1:1 and added onto the target cells. Cells were incubated for 48 hours at 37° C.; 5% CO2 and 95% humidity.
(§4) Cells were fixed by addition of a 5× formaldehyde solution to achieve a 4% final concentration for 30 mins at room temperature. Cells were washed with PBS and stained with DAPI (4′,6-diamidino-2-phenylindole) following manufacturer's recommendations. Relative infection efficiency was estimated by image analysis in an automated microscopy device (Tecan Spark Cyto). Uninfected cells and vehicle-treated controls were included in each plate.

[7] = system: IL-1, IL-6, IL-8 and TNFα secretion; experiment: ELISA assays for secreted cytokines in THP-1 cells; format: cell-based, human; conditions: 100 nM plitidepsin, 6 hours, TLR ligands
Procedure: To investigate whether plitidepsin inhibits the TLR-trigged cytokine secretion, we treated THP-1 cells with 100 ng/mL TNFα (an activator of NF-κB), 500 μg/mL poly I:C (TLR3 ligand), 10 g/mL LPS-B5 (TLR4 ligand) or 10 g/mL Resiquimod (TLR-7/8 ligand). The compounds were used either alone (grey bars) or combined with 100 nM of plitidepsin (red bars) for 6 hours. We compared the variations in cytokine secretion in the cell culture supernatants between the different treatments by ELISA assays.
THP1-NFκB-LUC cell cultures were treated as described above, and the culture medium was sampled at 6 hours post-treatment to assay for secreted cytokines by ELISA. Media samples were stored at 4° C. IL-8, IL-1β, IL-6 and TNF□ protein secretion into culture medium was quantitated using highly specific and sensitive ELISA kits. Human IL-1b, human IL-6, human IL-8 and human TNF OptEIA™ ELISA kits were obtained from BD Biosciences and performed as described by the manufacturer. The data presented are the average of three independent experiments performed in triplicate.

[8] = Plasma pharmacokinetics in mouse (Table 1); format: in vivo; conditions: Mouse (F) C57BL6/J, 1.0 mg/kg single intravenous bolus
[9] = system: WNV-NY99 (lineage 1); experiment: Intracellular WNV RNA load by RT-qPCR, Huh-7 cells; format: cell-based, West Nile virus; conditions: 48 hours
[10] = system: NF-κB; experiment: NF-κB transactivation luciferase assay in THP-1 cells; format: cell-based, human; conditions: THP-1 NF-κB-Luc cells, 100 nM plitidepsin, 6 hours, with poly I:C, LPS-B5 or Resiquimod
Procedure: To that end, we took advantage of THP-1 cells stably transfected with an NFκB luciferase reporter plasmid. We treated the cells with 100 ng/mL TNFα (an activator of NF-κB), 500 μg/mL poly I:C (TLR3 ligand), 10 μg/mL LPS-B5 (TLR4 ligand) or 10 g/mL Resiquimod (TLR-7/8 ligand). The compounds were used either alone (FIG. 1A grey bars) or combined with 100 nM of plitidepsin (FIG. 1A black bars) for 6 hours, and quantified the luciferase activity under each condition.
NF-κB transactivation was assayed using the Bright-Glo™ Luciferase Assay System following the manufacturer's instructions. The NF-κB reporter (Luc)-THP-1 human monocytic, cells stably transfected with NF-κB-Luc plasmid (containing four NF-κB binding sites, a minimal promoter and a luciferase gene), were exposed to 100 ng/mL TNFα (positive control), 500 μg/mL poly (I:C) (Polyinosinic-polycytidylic), 10 μg/mL LPS-B5 (Lipopolysaccharide from Escherichia coli 055:B5) or 10 g/mL Resiquimod. The compounds were used either alone or combined with 100 nM plitidepsin for 6 hours. Luminescence was measured in a Perkin-Elmer EnVision reader. A MTT (3-(4,5-dimethylthiazol-2-yl)-2,5-diphenyltetrazolium bromide) cell proliferation assay was simultaneously performed to control the cytotoxicity of the compounds. Cell survival was expressed as percentage of control cell growth. […]

[11] = system: Huh7 cells; experiment: Cell biomass (DAPI) in Huh7 cells; format: cell-based, human; conditions: 48 hours
Procedure: as §2, §3, §4

[12] = system: WNV-NY99 (lineage 1); experiment: Intracellular WNV RNA load by RT-qPCR, Vero-E6 cells; format: cell-based, West Nile virus; conditions: 48 hours
[13] = system: THP-1 cells; experiment: Cell viability after plitidepsin pre-treatment and Resiquimod stimulus; format: cell-based, human; conditions: 1, 10 or 50 nM, Resiquimod 2.5 or 5 μg/mL, 24 hours
Procedure: as §1

[14] = system: alveolar macrophages; experiment: Alveolar macrophage recruitment in mice (LPS inflammation model, flow cytometry); conditions: for macrophages in bronchoalveolar lavage: single iv administration
Description: Also we checked the effect of plitidepsin on alveolar macrophage recruitment. Viral infection also leads to the activation of macrophages. Activated macrophages are twice the size of resting macrophages and are more “aggressive”, having increased levels of lysosomal proteins and a greater ability to phagocytose. Classically activated macrophages also release proteases, neutrophil chemotactic factors, reactive oxygen species and pro-inflammatory cytokines (such as IL-1 beta/IL-1F2, IL-6, and TNF-alpha/TNFSF1A), leading to inflammation and tissue destruction. Bronchoalveolar lavage cells were stained and analyced by flow cytometry.
To investigate whether plitidepsin decreases the percentage of alveolar macrophage in animals with acute inflammation, we treated mice with plitidepsin (1 mg/kg) i.v., with LPS (20 μg/kg) i.p. in sterile saline or with plitidepsin (1 mg/kg; i.v.) in combination with LPS (20 μg/kg, i.p.). Three hours later, bronchoalveolar lavages were collected. Bronchoalveolar lavage cells were obtained by centrifugation and analyzed by flow cytometry (FIG. 4b). Upper panels show the strategy of analysis of macrophage population present in the samples. Lower right panel show the same result expressed as percentage of cells. Lower left panel show the percentage of CD45+(leucocyte marker) alive cells.
Bronchoalveolar lavage cells were obtained by centrifugation and analyzed by flow cytometry.
Bronchoalveolar lavage cells were stained with anti-F4/80-BV510, CD45-APC700, CD11b-BV650, CD11c-APC-Fire, CD24-PC7 and Ly6C-BV605 monoclonal antibodies (Biolegend) and a LIVE/DEAD™ Fixable Green Dead Cell Stain Kit, for 488 nm excitation (Thermofisher). Macrophages (F4/80+) were gated on alive immune cells (CD45+ LIVE/DEAD dye−), while alveolar macrophages (F4/80+CD24−) were specifically gated on CD11c+CD11b− population from alive immune cells. Isotype controls and compensation beads were used to set compensations and gating strategies.

[15] = system: THP-1 human monocytic cells; experiment: MTT cell proliferation assay (compound-induced cytotoxicity); conditions: activators combined with 100 nM plitidepsin, 6 hours
Procedure: To that end, we took advantage of THP-1 cells stably transfected with an NFκB luciferase reporter plasmid. We treated the cells with 100 ng/mL TNFα (an activator of NF-κB), 500 μg/mL poly I:C (TLR3 ligand), 10 μg/mL LPS-B5 (TLR4 ligand) or 10 g/mL Resiquimod (TLR-7/8 ligand). The compounds were used either alone (FIG. 1A grey bars) or combined with 100 nM of plitidepsin (FIG. 1A black bars) for 6 hours, and quantified the luciferase activity under each condition. […] Survival was analysed with the MTT assay (FIG. 1B grey bars (activators) and red bars (activators combined with 100 nM of plitidepsin)).
NF-κB transactivation was assayed using the Bright-Glo™ Luciferase Assay System following the manufacturer's instructions. […] Luminescence was measured in a Perkin-Elmer EnVision reader. […] Cell survival was expressed as percentage of control cell growth. […]
Cells were seeded in 96 well microtiter plates and allowed to stand for 24 hours at 37° C. and 5% CO2 before treatment described above. After 6 hours of continuous treatment, cellular viability was estimated from conversion of MTT to its coloured reaction product, MTT formazan, which was dissolved to measure its absorbance at 540 nm. […]

[16] = system: TNFα; experiment: Resiquimod-triggered TNFα secretion in BALF of mice; format: in vivo; conditions: mice 1 mg/kg i.v. 1 hour before 50 μg/mouse intranasal RQ; 1 or 3 hours
[17] = system: WNV-GFP (lineage 2; molecular clone WN956)

(−)-(3S,6R,7S,10R,11S,15S,17S,20S,25aS)-11-hydroxy-3-(4-methoxybenzyl)-2,6,17-trimethyl-15-(1-methylethyl)-7-[[(2R)-4-methyl-2-[methyl[[(2S)-1-(2-oxopropanoyl)pyrrolidin-2-yl]carbonyl]amino]pentanoyl]amino]-10-[(1S)-1-methylpropyl]-20-(2-methylpropyl)tetradecahydro-15H-pyrrolo[2,1-f]-[1,15,4,7,10,20]dioxatetrazacyclotricosine-1,4,8,13,16,18,21(17H)-heptone [PLD]
EC50 ([1]; Huh7 cells, MOI 0.01, 48 hours): 0.665 nM | EC90 ([1]; Huh7 cells, MOI 0.01, 48 hours): 3.86 nM | concentration with antiviral activity in the absence of measurable interference with cell viability (p<0.05) ([1]; Huh-7 cells): 1.5 nM | secretion of IL6, IL8, IL1β and TNF-α induced by RQ [2]: inhibited secretion of the pro-inflammatory cytokines: IL6, IL8, IL1β and TNF-α | reduction of extracellular infectivity titers [3]: > 3 orders of magnitude | production of IL-6 and TNF-α induced by LPS ([4]; mice 1 mg/kg i.v., BAL at 12 hours, cells treated ex vivo with 15 μg/mL LPS-B5 for 3 or 6 hours): clearly inhibited the production of pro-inflammatory cytokines IL-6, and TNF-α | secretion of IL-6, IL-10 and TNFα induced by LPS-B5 in CD45+ cells from broncho-alveolar lavages ([4]; treated animals, 3 and 6 hours): significantly reduce the secretion of IL-6, IL-10 and TNFα | reduction of extracellular infectivity titers [5]: > 3 orders of magnitude | concentration at which cell number significantly decreased (p<0.05) [6]: 180 nM | concentration up to which cell number remained unchanged [6]: up to 36 nM | CC50 ([6]; read-out: CC50 based on the cell biomass): 2330 nM | production of IL-1, IL-6, IL-8 and TNFα (ELISA) [7]: clearly inhibited the production of IL-1, IL-6, IL-8 and TNFα | Cl [8]: 73.3 mL/min/kg | intracellular viral RNA load ([9]; 15 nM): marked reduction in viral load | RNA recovery from cells ([9]; 45 nM): no RNA could be recovered | NF-κB transactivation (production of luciferase) [10]: clearly inhibited the production of luciferase | CC50 [11]: 14.7 nM | concentration at which loss of cell biomass is statistically significant (p<0.05) [11]: 7.2 nM | intracellular viral RNA load ([12]; 5 and 1.5 nM): not distinguishable from those in the control | intracellular viral RNA load ([12]; 15 and 45 nM): significantly decreased in a dose-dependent manner | cell viability over the untreated control [13]: does not decrease viability over the untreated control | cytotoxic effects on bronchoalveolar lavage cells ([14]; 1 mg/kg i.v.): without cytotoxic effects | percentage of macrophages present on bronchoalveolar lavage ([14]; plitidepsin 1 mg/kg i.v. with LPS 20 μg/kg i.p., 3 hours): decrease the percentage of macrophages | macrophages in bronchoalveolar lavage [14]: reduces the number of macrophages in BAL | macrophages in bronchoalveolar lavage ([14]; listed as Plitidepsin): decreased the percentage of macrophages | cytotoxic effect (survival, MTT assay) [15]: No cytotoxic effect was detected | production of TNFα induced by Resiquimod in BALF [16]: prevented the increased production of TNFα | concentration with antiviral activity in the absence of measurable interference with cell viability (p<0.05) ([17]; Vero-E6 cells): 7.2 nM | therapeutic index (ratio CC50/EC50) ([17]; VeroE6 cells): 475 | concentration at which infection efficiency reaches background fluorescence levels ([17]; VeroE6 cells, 48 hours): ≥ 36 nM | EC50 ([17]; read-out: EC50, WNV-GFP infection efficiency, VeroE6 cells, MOI 0.01, 48 hours): 4.9 nM | EC90 ([17]; read-out: EC90, WNV-GFP infection efficiency, VeroE6 cells, MOI 0.01, 48 hours): 9.5 nM

— patent US12630589B2, “Compounds for use in viral infections” (priority 2020, dated 2026)
